Assay results published in US11046694B2, “Compounds and methods for treating bacterial infections” (Entasis Therapeutics, Inc., priority 2018, dated 2021).
In brackets after ≈: the same amount, converted by molar mass. Structures can show the parent of a compound that is named as a salt.

How the values were obtained:
P. aeruginosa PBP3 = P. aeruginosa PBP3 (Pseudomonas aeruginosa, UniProt G3XD46); assay type: biochemical; conditions: P. aeruginosa PBP3 60 nM, BOCILLIN FL 30 nM, pH 7.0
P. aeruginosa WT (PAO1) = assay: MIC, CLSI broth microdilution, P. aeruginosa; assay type: cell-based; conditions: Pseudomonas aeruginosa, PAO1; CLSI broth microdilution; read-out: P. aeruginosa WT (PAO1) MIC
P. aeruginosa PBP2 = target: T1, P. aeruginosa PBP2 (Pseudomonas aeruginosa, UniProt Q9X6V3); assay type: biochemical; conditions: P. aeruginosa PBP2 300 nM, BOCILLIN FL 30 nM, pH 6.2
T1 sequence (Q9X6V3 1-646): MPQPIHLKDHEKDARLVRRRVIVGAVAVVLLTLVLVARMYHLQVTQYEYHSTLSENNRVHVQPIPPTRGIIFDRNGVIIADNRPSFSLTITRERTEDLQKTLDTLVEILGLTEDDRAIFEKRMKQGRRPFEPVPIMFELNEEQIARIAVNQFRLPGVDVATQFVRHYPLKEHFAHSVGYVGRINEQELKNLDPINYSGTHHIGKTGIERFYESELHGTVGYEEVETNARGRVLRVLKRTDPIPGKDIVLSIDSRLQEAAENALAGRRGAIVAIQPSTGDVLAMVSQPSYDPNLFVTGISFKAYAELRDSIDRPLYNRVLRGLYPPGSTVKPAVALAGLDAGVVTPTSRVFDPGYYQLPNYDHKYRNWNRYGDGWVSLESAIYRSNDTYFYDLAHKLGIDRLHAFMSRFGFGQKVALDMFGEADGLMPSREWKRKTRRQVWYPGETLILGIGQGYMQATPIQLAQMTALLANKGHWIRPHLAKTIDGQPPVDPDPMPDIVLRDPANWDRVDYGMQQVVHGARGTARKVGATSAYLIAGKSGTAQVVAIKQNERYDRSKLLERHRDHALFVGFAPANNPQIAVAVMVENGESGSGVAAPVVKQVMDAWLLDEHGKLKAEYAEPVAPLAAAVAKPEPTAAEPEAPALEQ

B. mallei = assay: microbe, parasite or virus in culture; conditions: Burkholderia mallei, read-out: MIC against B. mallei
Y. pestis = assay: microbe, parasite or virus in culture; conditions: Yersinia pestis, read-out: MIC against Y. pestis
P. aeruginosa PBP1a = P. aeruginosa PBP1a (Pseudomonas aeruginosa, UniProt Q07806); assay type: biochemical; conditions: P. aeruginosa PBP1a 60 nM, BOCILLIN FL 30 nM, pH 7.0
Sequence of P. aeruginosa PBP1a (Q07806 whole entry): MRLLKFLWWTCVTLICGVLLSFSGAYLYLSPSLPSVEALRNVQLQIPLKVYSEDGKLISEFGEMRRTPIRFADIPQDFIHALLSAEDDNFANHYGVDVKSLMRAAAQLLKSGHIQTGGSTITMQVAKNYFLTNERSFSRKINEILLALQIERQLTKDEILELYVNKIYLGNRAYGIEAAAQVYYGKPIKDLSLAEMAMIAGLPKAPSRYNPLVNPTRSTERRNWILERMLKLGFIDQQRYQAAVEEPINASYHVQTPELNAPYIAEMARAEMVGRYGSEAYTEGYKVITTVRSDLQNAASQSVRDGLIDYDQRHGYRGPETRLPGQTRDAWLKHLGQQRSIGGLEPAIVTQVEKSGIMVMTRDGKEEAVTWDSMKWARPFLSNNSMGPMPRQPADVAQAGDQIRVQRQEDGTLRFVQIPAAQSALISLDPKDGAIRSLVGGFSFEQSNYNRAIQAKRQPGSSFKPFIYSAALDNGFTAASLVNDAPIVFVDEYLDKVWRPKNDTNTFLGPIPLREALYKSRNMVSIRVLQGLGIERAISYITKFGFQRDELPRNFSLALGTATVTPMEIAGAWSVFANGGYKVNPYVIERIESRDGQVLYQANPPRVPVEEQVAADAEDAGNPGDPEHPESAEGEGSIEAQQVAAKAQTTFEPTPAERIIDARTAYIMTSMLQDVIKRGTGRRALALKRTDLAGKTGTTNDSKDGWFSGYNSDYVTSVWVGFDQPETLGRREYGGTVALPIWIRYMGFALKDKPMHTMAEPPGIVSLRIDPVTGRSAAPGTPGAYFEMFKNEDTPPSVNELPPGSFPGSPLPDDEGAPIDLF

F. tularensis = assay: microbe, parasite or virus in culture; conditions: Francisella tularensis, read-out: MIC against F. tularensis
[1] = tested on: K. pneumoniae (ATCC700603); assay: MIC against K. pneumoniae; conditions: Klebsiella pneumoniae, ATCC700603, read-out: K. pneumoniae MIC (ATCC700603)
E. coli (ATCC25922) = assay: MIC against E. coli; conditions: Escherichia coli, ATCC25922, read-out: E. coli MIC (ATCC25922) (mg/L)
B. anthracis = assay: microbe, parasite or virus in culture; conditions: Bacillus anthracis, read-out: MIC against B. anthracis
B. pseudomallei = assay: microbe, parasite or virus in culture; conditions: Burkholderia pseudomallei, read-out: MIC against B. pseudomallei
A. baumannii (ARC3495) = assay: MIC against A. baumannii; conditions: Acinetobacter baumannii, read-out: A. baumannii MIC (ARC3495) (mg/L)

Sequence of P. aeruginosa PBP3 (G3XD46 whole entry): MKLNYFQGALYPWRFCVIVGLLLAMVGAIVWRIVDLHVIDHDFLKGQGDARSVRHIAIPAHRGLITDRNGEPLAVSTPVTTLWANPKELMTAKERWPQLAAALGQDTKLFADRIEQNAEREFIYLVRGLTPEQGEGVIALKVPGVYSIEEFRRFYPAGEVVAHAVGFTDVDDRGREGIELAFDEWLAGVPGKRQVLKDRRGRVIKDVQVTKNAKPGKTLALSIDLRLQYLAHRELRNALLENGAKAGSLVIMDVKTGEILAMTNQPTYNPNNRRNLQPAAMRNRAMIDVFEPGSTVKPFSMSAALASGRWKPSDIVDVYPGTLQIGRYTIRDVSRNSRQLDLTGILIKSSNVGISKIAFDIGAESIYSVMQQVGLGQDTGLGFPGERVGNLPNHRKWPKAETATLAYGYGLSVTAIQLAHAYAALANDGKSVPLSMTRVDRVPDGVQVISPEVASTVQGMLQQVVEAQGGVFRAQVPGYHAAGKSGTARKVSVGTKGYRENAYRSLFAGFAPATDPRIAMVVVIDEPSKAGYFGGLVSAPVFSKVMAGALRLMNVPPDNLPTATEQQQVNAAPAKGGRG

SMILES	PBP3 acylation rate, k(on) (M^−1 · s^−1) (P. aeruginosa PBP3)	MIC (P. aeruginosa WT (PAO1)) [µg/mL]	PBP2 acylation rate, k(on) (M^−1 · s^−1) (P. aeruginosa PBP2)	MIC (B. mallei) [µg/mL]	MIC (Y. pestis) [µg/mL]	PBP1a acylation rate, k(on) (M^−1 · s^−1) (P. aeruginosa PBP1a)	MIC (F. tularensis) [µg/mL]	MIC [1] [µg/mL]	MIC (E. coli (ATCC25922)) [mg/L]	MIC (B. anthracis) [µg/mL]	MIC (B. pseudomallei) [µg/mL]	MIC (A. baumannii (ARC3495)) [mg/L]
CN/C(=N\O)[C@@H]1c2c(cnn2C)[C@@H]2CN1C(=O)N2OS(=O)(=O)O (stereo in doubt) [Example 40, Sodium (4R*,8S*)-8-((Z)—N′-hydroxy-N-methylcarbamimidoyl)-1-methyl-6-oxo-4,8-dihydro-1H-4,7-methanopyrazolo[3,4-e][1,3]diazepin-5(6H)-yl hydrogen sulfate]	*** (*** represents a k(on) > 10,000 M^−1 · s^−1)	< 8	* (* represents a k(on) < 100 M^−1 · s^−1)	< 4	< 4	** (** represents a k(on) of 100 to 10,000 M^−1 · s^−1)	< 4	< 8	< 8	< 4	< 4	< 8
Cn1ncc2c1[C@@H](/C(CNS(N)(=O)=O)=N/O)N1C[C@@H]2N(OS(=O)(=O)O)C1=O [Example 56, (4R,8S)-8-((E)-1-(hydroxyamino)-2-(sulfamoyl)amino)ethyl)-1-methyl-6-oxo-4,8-dihydro-1H-4,7-methanopyrazolo[3,4-e][1,3]diazepin-5(6H)-yl hydrogen sulfate]	** (** represents a k(on) of 100 to 10,000 M^−1 · s^−1)	> 16	* (* represents a k(on) < 100 M^−1 · s^−1)			** (** represents a k(on) of 100 to 10,000 M^−1 · s^−1)		> 16	< 8			> 16
Cn1ncc2c1[C@@H](c1noc(=O)n1Cc1nc(N)cs1)N1C[C@@H]2N(OS(=O)(=O)O)C1=O [Example 53, (4R,8S)-8-(4-((4-aminothiazol-2-yl)methyl)-5-oxo-4,5-dihydro-1,2,4-oxadiazol-3-yl)-1-methyl-6-oxo-4,8-dihydro-1H-4,7-methanopyrazolo[3,4-e][1,3]diazepin-5(6H)-yl hydrogen sulfate]	** (** represents a k(on) of 100 to 10,000 M^−1 · s^−1)	> 16	* (* represents a k(on) < 100 M^−1 · s^−1)			** (** represents a k(on) of 100 to 10,000 M^−1 · s^−1)		> 16	< 8			> 16
C/C(=N\O)[C@@H]1c2c(cnn2C)[C@@H]2CN1C(=O)N2OS(=O)(=O)O [Example 71, (4R,8S)-8-((E)-1-(hydroxyimino)ethyl)-1-methyl-6-oxo-4,8-dihydro-1H-4,7-methanopyrazolo[3,4-e][1,3]diazepin-5(6H)-yl hydrogen sulfate]	** (** represents a k(on) of 100 to 10,000 M^−1 · s^−1)	8 to 16	* (* represents a k(on) < 100 M^−1 · s^−1)			* (* represents a k(on) < 100 M^−1 · s^−1)		> 16	8 to 16			> 16
Cn1ncc2c1[C@@H](/C(C#N)=N/O)N1C[C@@H]2N(OS(=O)(=O)O)C1=O (racemic) [Example 13]	** (** represents a k(on) of 100 to 10,000 M^−1 · s^−1)	> 16	* (* represents a k(on) < 100 M^−1 · s^−1)			* (* represents a k(on) < 100 M^−1 · s^−1)		> 16	< 8			> 16
Cn1ncc2c1[C@@H](/C(=N/O)C(N)=O)N1C[C@@H]2N(OS(=O)(=O)O)C1=O [Example 67, (4R,8S)-8-((Z)-2-amino-1-(hydroxyimino)-2-oxoethyl-1-methyl-6-oxo-4,8-dihydro-1H-4,7-methanopyrazolo[3,4-e][1,3]diazepin-5(6H)-yl hydrogen sulfate]	** (** represents a k(on) of 100 to 10,000 M^−1 · s^−1)	> 16	* (* represents a k(on) < 100 M^−1 · s^−1)			* (* represents a k(on) < 100 M^−1 · s^−1)		> 16	< 8			> 16
Cn1ncc2c1[C@@H](/C(=N/OC(=O)NC(C)(C)C(=O)O)NCc1nc(N)cs1)N1C[C@@H]2N(OS(=O)(=O)O)C1=O [Example 52, (Z)-1-(4-aminothiazol-2-yl)-8,8-dimethyl-3-((4R,8S)-1-methyl-6-oxo-5-(sulfooxy)-4,5,6,8-tetrahydro-1H-4,7-methanopyrazolo[3,4-e][1,3]diazepin-8-yl)-6-oxo-5-oxa-2,4,7-triazanon-3-en-9-oic acid]	** (** represents a k(on) of 100 to 10,000 M^−1 · s^−1)	> 16	* (* represents a k(on) < 100 M^−1 · s^−1)			** (** represents a k(on) of 100 to 10,000 M^−1 · s^−1)		> 16	< 8			> 16
Cn1ncc2c1[C@@H](/C(=N/O)NO)N1C[C@@H]2N(OS(=O)(=O)O)C1=O (racemic) [Example 10]	** (** represents a k(on) of 100 to 10,000 M^−1 · s^−1)	> 16	* (* represents a k(on) < 100 M^−1 · s^−1)			* (* represents a k(on) < 100 M^−1 · s^−1)		8 to 16 (≈ 23 to 45.9 µM)	8 to 16 (≈ 23 to 45.9 µM)			> 16
